Test results taken from patent US9809598B2 (Merck Patent GmbH, priority 2014, dated 2017).

Experiments:
[1] = biological target: T1, TNKS2 (Homo sapiens, UniProt Q9H2K2); assay: TNKS2 activity ELISA (autoparsylation assay); assay type: biochemical; details: GST-tagged Tnks-2 (873-1166 aa); read-out: IC50 [M] TNKS2 ELISA
T1 construct: GST-tagged Tnks-2 (873-1166 aa, prepared in-house); made in house
Description: (§1) Description of the TNKS1 and TNKS2 ELISA Assay
(§2) Biochemical Activity Testing of TNKS 1 and 2: Activity ELISA (Autoparsylation Assay)
(§3) For analysis of autoparsylation activity of TNKS 1 and 2 an activity ELISA iss performed: In the first step GST tagged TNKS is captured on a Glutathione coated plate. Then the activity assay with biotinylated NAD is performed in the absence/presence of the compounds. During the enzymatic reaction GST tagged TNKS transfers biotinylated ADP-ribose to itself from biotinylated NAD as co-substrate. For the detection streptavidin-HRP conjugate is added that binds to the biotinylated TNKS and is thereby captured to the plates. The amount of biotinylated resp. autoparsylated TNKS is detected with a luminescence substrate for HRP. The level of the luminescence signal correlats directly with the amount of autoparsylated TNKS and therefore with activity of TNKS.
(§4) The activity ELISA is performed in 384 well Glutathione coated microtiter plates (Express capture Glutathione coated plate, Biocat, Heidelberg, Germany). The plates are pre-equilibrated with PBS. […] The plates are washed 3 times with PBS-Tween-20. The wells are blocked by incubation at room temperature for 20 minutes with 50 μl blocking buffer (PBS, 0.05% Tween-20, 0.5% BSA). Afterwards the plates are washed 3 times with PBS-Tween-20. […] The reaction is stopped by 3 times washing with PBS-Tween-20. For the detection 50 μl of 20 ng/μl Streptavidin, HRP conjugate (MoBiTec, Göttingen, Germany) in PBS/0.05% Tween-20/0.01% BSA are added and the plates are incubated for 30 minutes at room temperature. After three times washing with PBS-Tween-20 50 μl of SuperSignal ELISA Femto Maximum sensitivity substrate solution (ThermoFisherScientific (Pierce), Bonn, Germany) are added. Following a 1 minute incubation at room temperature luminescence signals are measured with an Envision multimode reader (Perkin Elmer LAS Germany GmbH) at 700 nm. The full value used is the inhibitor-free reaction. […] The inhibitory values (IC50) are determined using either the program Symyx Assay Explorer® or Condosseo® from GeneData.

[2] = biological target: T2, PARP-1 (Homo sapiens, UniProt P09874); assay: PARP-1 autoparsylation assay (HTRF); assay type: biochemical; details: His-tagged Parp-1, autoparsylation HTRF
T2 construct: purchased Enzo Life Sciences GmbH, Lörrach, Germany
T2 sequence (P09874 whole entry): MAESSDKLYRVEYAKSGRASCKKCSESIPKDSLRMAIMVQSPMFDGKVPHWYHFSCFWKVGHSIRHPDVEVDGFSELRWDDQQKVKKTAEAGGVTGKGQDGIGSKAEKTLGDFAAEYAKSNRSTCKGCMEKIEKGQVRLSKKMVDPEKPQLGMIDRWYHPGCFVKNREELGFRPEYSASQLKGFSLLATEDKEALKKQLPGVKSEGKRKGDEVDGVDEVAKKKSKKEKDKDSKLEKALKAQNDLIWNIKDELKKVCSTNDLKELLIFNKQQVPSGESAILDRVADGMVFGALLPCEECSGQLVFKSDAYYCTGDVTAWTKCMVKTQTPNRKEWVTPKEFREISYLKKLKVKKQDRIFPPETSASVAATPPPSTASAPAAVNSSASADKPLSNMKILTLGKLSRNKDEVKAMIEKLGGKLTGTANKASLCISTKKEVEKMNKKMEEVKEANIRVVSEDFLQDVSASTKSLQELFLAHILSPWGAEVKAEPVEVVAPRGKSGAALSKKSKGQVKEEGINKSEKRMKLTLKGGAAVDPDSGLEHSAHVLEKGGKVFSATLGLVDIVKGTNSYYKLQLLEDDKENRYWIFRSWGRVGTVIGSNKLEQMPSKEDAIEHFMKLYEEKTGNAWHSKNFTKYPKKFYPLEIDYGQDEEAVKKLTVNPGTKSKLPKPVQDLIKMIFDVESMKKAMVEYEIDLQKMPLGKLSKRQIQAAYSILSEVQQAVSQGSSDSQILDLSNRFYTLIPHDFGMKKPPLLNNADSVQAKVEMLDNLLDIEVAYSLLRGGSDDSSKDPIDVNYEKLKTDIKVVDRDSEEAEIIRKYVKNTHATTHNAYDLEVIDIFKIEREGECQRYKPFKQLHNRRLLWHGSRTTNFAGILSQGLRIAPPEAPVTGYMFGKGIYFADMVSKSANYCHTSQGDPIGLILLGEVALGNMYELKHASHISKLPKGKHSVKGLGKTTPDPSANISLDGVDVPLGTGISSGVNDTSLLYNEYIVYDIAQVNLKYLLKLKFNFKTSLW
Description: Description of the PARP1 Assay
Biochemical Activity Testing of PARP-1: Autoparsylation Assay
The autoparsylation assay is run in two steps: the enzymatic reaction in which His-tagged Parp-1 transfers biotinylated ADP-ribose/ADP-ribose to itself from biotinylated NAD/NAD as co-substrate and the detection reaction where a time resolved FRET between cryptate labelled anti-His antibody bound to the His tag of the enzyme and Xlent® labelled-streptavidin bound the biotin-parsylation residue is analysed. The autoparsylation activity is detectable directly via the increase in HTRF signal.
The autoparsylation assay is performed as 384-well HTRF® (Cisbio, Codolet, France) assay format in Greiner low volume nb 384-well microtiter plates. […] The ratio of the emission signals is determined. The full value used is the inhibitor-free reaction. The pharmacological zero value used is Olaparib (LClabs, Woburn, US) in a final concentration of 1 μM. The inhibitory values (IC50) are determined using either the program Symyx Assay Explorer® or Condosseo® from GeneData.

[3] = biological target: T3, TNKS1 (Homo sapiens, UniProt O95271); assay: TNKS1 activity ELISA (autoparsylation assay); assay type: biochemical; details: GST-tagged Tnks-1 (1023-1327 aa)
T3 construct: GST-tagged Tnks-1 (1023-1327 aa, prepared in-house); made in house
T3 sequence (O95271 1023-1327): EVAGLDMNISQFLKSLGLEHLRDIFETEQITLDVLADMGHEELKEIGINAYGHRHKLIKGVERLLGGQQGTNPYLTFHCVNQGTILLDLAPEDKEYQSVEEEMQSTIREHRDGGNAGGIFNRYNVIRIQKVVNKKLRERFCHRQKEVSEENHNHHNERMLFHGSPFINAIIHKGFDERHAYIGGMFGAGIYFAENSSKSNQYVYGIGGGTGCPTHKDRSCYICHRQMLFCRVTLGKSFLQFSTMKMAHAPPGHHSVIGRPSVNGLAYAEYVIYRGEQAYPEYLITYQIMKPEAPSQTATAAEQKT
Description: as §1, §2, §3, §4

[4] = tested on: Tankyrases; details: read-out: EC50 [M] TNKS cellular assay; DLD1 cells, 24 hours, Axin2 increase

T1 sequence (Q9H2K2 873-1166): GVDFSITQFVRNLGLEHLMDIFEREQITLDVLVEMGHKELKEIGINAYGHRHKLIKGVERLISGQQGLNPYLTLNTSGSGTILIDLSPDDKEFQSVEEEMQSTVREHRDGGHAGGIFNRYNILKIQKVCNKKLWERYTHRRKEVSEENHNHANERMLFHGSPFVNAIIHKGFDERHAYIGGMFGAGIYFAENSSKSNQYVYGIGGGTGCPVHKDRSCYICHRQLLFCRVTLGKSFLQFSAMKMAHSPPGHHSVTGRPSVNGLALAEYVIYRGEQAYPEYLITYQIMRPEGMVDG

Cc1ccc2c(=O)[nH]c(CCCC(=O)N3CCC(c4nnc(-c5ccccc5)o4)CC3)nn12 [Compound C151, 7-Methyl-2-{4-oxo-4-[4-(5-phenyl-[1,3,4]oxadiazol-2-yl)-piperidin-1-yl]-butyl}-3H-pyrrolo[2,1-f][1,2,4]triazin-4-one]
IC50 [1]: 9.3e-10 M
IC50 [2]: 210 nM
IC50 [3]: 1.4 nM
EC50 [4]: 1.9e-08 M

N#Cc1cc(C2CCN(C(=O)CCCc3nn4cccc4c(=O)[nH]3)CC2)cnc1N [Compound C138, 6-Amino-1′-[4-(4-oxo-3,4-dihydro-pyrrolo[2,1-f][1,2,4]triazin-2-yl)-butyryl]-1′,2′,3′,4′,5′,6′-hexahydro-[3,4′]bipyridinyl-5-carbonitrile]
IC50 [1]: 2.6e-09 M
IC50 [2]: 3200 nM
IC50 [3]: 2.2 nM
EC50 [4]: 5.2e-08 M

Cn1ncc2c(=O)[nH]c(CCCC(=O)N3CCC(C(=O)c4ccc(C(C)(F)F)cc4)CC3)nc21 [Compound C245, 6-(4-{4-[4-(1,1-Difluoro-ethyl)-benzoyl]-piperidin-1-yl}-4-oxo-butyl)-1-methyl-1,5-dihydro-pyrazolo[3,4-d]pyrimidin-4-one]
IC50 [1]: 1.7e-10 M
IC50 [2]: 5800 nM
IC50 [3]: 0.41 nM
EC50 [4]: 4.8e-09 M

COc1ccc(C(=O)C2CCN(C(=O)CCCc3cn4c(Cl)ccc4c(=O)[nH]3)CC2)cc1 [Compound C11, 6-Chloro-3-{4-[4-(4-methoxy-benzoyl)-piperidin-1-yl]-4-oxo-butyl}-2H-pyrrolo[1,2-a]pyrazin-1-one]
IC50 [1]: 1.6e-10 M
IC50 [2]: 2700 nM
IC50 [3]: 0.14 nM
EC50 [4]: 9e-10 M

Cc1csc2c(=O)[nH]c(CCCC(=O)N3CCC(Oc4ccc(C#N)cc4)CC3)nc12 [Compound C130, 4-{{1-[4-(7-Methyl-4-oxo-3H-thieno[3,2-d]pyrimidin-2-yl)butanoyl]-4-piperidyl}-oxy}benzonitrile]
IC50 [1]: 2.1e-08 M
IC50 [2]: 320 nM
IC50 [3]: 50 nM
EC50 [4]: 3.3e-08 M

Cc1csc2c(=O)[nH]c(CCCC(=O)N3CCC(C(=O)c4cnn(C(C)C)c4)CC3)nc12 [Compound C225, 2-{4-[4-(1-Isopropyl-1H-pyrazole-4-carbonyl)-piperidin-1-yl]-4-oxo-butyl}-7-methyl-3H-thieno[3,2-d]pyrimidin-4-one]
IC50 [1]: 4e-10 M
IC50 [2]: 700 nM
IC50 [3]: 0.73 nM
EC50 [4]: 1.4e-08 M

Cc1ccc2c(=O)[nH]c(CCCC(=O)N3CCC(c4cnc(N)c(-c5ncccn5)c4)CC3)nn12 [Compound C150, 2-[4-(6-Amino-5-pyrimidin-2-yl-3′,4′,5′,6′-tetrahydro-2′H-[3,4′]bipyridinyl-1′-yl)-4-oxo-butyl]-7-methyl-3H-pyrrolo[2,1-f][1,2,4]triazin-4-one]
IC50 [1]: 2.8e-10 M
IC50 [2]: 1300 nM
IC50 [3]: 0.23 nM
EC50 [4]: 1.1e-09 M

COc1ccc(C(=O)C2CCN(C(=O)CCCc3nn4c(C)ccc4c(=O)[nH]3)CC2)cn1 [Compound C148, 2-{4-[4-(6-Methoxy-pyridine-3-carbonyl)-piperidin-1-yl]-4-oxo-butyl}-7-methyl-3H-pyrrolo[2,1-f][1,2,4]triazin-4-one]
IC50 [1]: 1.9e-10 M
IC50 [2]: 770 nM
IC50 [3]: 0.28 nM
EC50 [4]: 1.4e-09 M

Cc1cc2c(=O)[nH]c(CCCC(=O)N3CCC(Oc4ccc(C#N)cc4)CC3)nn2c1 [Compound C163, 4-{1-[4-(6-Methyl-4-oxo-3,4-dihydro-pyrrolo[2,1-f][1,2,4]triazin-2-yl)-butyryl]-piperidin-4-yloxy}-benzonitrile]
IC50 [1]: 2.5e-08 M
IC50 [2]: 1300 nM
IC50 [3]: 21 nM
EC50 [4]: 2e-07 M

CC(C)n1cc(C(=O)C2CCN(C(=O)CCCc3cn4cccc4c(=O)[nH]3)CC2)cn1 [Compound C210, 3-{4-[4-(1-Isopropyl-1H-pyrazole-4-carbonyl)-piperidin-1-yl]-4-oxo-butyl}-2H-pyrrolo[1,2-a]pyrazin-1-one]
IC50 [1]: 3.2e-10 M
IC50 [2]: 7500 nM
IC50 [3]: 0.38 nM
EC50 [4]: 3.6e-09 M

Cc1scc2c(=O)[nH]c(CCCC(=O)N3CCC(Oc4ccc(C#N)cc4)CC3)nc12 [Compound C118, 4-{1-[4-(7-Methyl-4-oxo-3,4-dihydro-thieno[3,4-d]pyrimidin-2-yl)-butyryl]-piperidin-4-yloxy}-benzonitrile]
IC50 [1]: 8.9e-08 M
IC50 [2]: 850 nM
IC50 [3]: 110 nM
EC50 [4]: 9.1e-07 M

O=C(CCCc1cn2cccc2c(=O)[nH]1)N1CCC(c2nnc(-c3ccccc3)o2)CC1 [Compound C6, 3-{4-Oxo-4-[4-(5-phenyl-[1,3,4]oxadiazol-2-yl)-piperidin-1-yl]-butyl}-2H-pyrrolo[1,2-a]pyrazin-1-one]
IC50 [1]: 1.3e-09 M
IC50 [2]: 3700 nM
IC50 [3]: 1.9 nM
EC50 [4]: 2.8e-08 M

COc1ccc(C(=O)C2CCN(C(=O)CCCc3nc4c(C)scc4c(=O)[nH]3)CC2)cc1 [Compound C34, 2-{4-[4-(4-Methoxy-benzoyl)-piperidin-1-yl]-4-oxo-butyl}-7-methyl-3H-thieno[3,4-d]pyrimidin-4-one]
IC50 [1]: 3.3e-10 M
IC50 [2]: 1100 nM
IC50 [3]: 0.54 nM
EC50 [4]: 4.8e-09 M

Cc1cc2c(=O)[nH]c(CCCC(=O)N3CCC(C(=O)c4cnn(C(C)C)c4)CC3)nn2c1 [Compound C220, 2-{4-[4-(1-Isopropyl-1H-pyrazole-4-carbonyl)-piperidin-1-yl]-4-oxo-butyl}-6-methyl-3H-pyrrolo[2,1-f][1,2,4]triazin-4-one]
IC50 [1]: 3.7e-09 M
IC50 [2]: 6200 nM
IC50 [3]: 4.2 nM
EC50 [4]: 4e-08 M

CC(C)n1cc(C(=O)C2CCN(C(=O)CCCc3nc4c(c(=O)[nH]3)COCC4)CC2)cn1 [Compound C229, 2-{4-[4-(1-Isopropyl-1H-pyrazole-4-carbonyl)-piperidin-1-yl]-4-oxo-butyl}-3,5,7,8-tetrahydro-pyrano[4,3-d]pyrimidin-4-one]
IC50 [1]: 2.3e-09 M
IC50 [2]: 24000 nM
IC50 [3]: 23 nM
EC50 [4]: 1.6e-06 M

Cc1csc2c(=O)[nH]c(CCCC(=O)N3CCC(c4cnc(N)c(-c5ncccn5)c4)CC3)nc12 [Compound C128, 2-{4-[4-(6-Amino-5-pyrimidin-2-yl-3-pyridyl)-1-piperidyl]-4-oxo-butyl}-7-methyl-3H-thieno[3,2-d]pyrimidin-4-one]
IC50 [1]: 7.9e-10 M
IC50 [2]: 230 nM
IC50 [3]: 0.11 nM
EC50 [4]: 3.3e-09 M

Cc1cc2c(=O)[nH]c(CCCC(=O)N3CCC(C(=O)c4ccc(F)cc4)CC3)nn2c1 [Compound C164, 2-{4-[4-(4-Fluoro-benzoyl)-piperidin-1-yl]-4-oxo-butyl}-6-methyl-3H-pyrrolo[2,1-f][1,2,4]triazin-4-one]
IC50 [1]: 2.8e-09 M
IC50 [2]: 2200 nM
IC50 [3]: 0.79 nM
EC50 [4]: 2.5e-08 M

COc1ccc(C(=O)C2CCN(C(=O)CCCc3nc(C)c(C)c(=O)[nH]3)CC2)cc1 [Compound C239, 2-{4-[4-(4-Methoxy-benzoyl)-piperidin-1-yl]-4-oxo-butyl}-5,6-dimethyl-3H-pyrimidin-4-one]
IC50 [1]: 8.2e-10 M
IC50 [2]: 24000 nM
IC50 [3]: 2.6 nM
EC50 [4]: 1.5e-08 M

COc1ccc(C(=O)C2CCN(C(=O)CCCc3nn4cccc4c(=O)[nH]3)CC2)cc1C [Compound C143, 2-{4-[4-(4-Methoxy-3-methyl-benzoyl)-piperidin-1-yl]-4-oxo-butyl}-3H-pyrrolo[2,1-f][1,2,4]triazin-4-one]
IC50 [1]: 1.6e-10 M
IC50 [2]: 4800 nM
IC50 [3]: 0.19 nM
EC50 [4]: 1.7e-09 M

O=C(CCCc1nn2cccc2c(=O)[nH]1)N1CCC(c2nnc(-c3ccccc3)o2)CC1 [Compound C140, 2-{4-Oxo-4-[4-(5-phenyl-[1,3,4]oxadiazol-2-yl)-piperidin-1-yl]-butyl}-3H-pyrrolo[2,1-f][1,2,4]triazin-4-one]
IC50 [1]: 1e-08 M
IC50 [2]: 3600 nM
IC50 [3]: 18 nM
EC50 [4]: 1e-07 M
